From patent publication US20230085307A1, “PYRIDAZINONE COMPOUND AND HERBICIDE” (NISSAN CHEMICAL CORPORATION, priority 2019, published 2023)

system: Japanese bulrush; test: Test Example 1: herbicidal activity, application before weed generation under submerged conditions (Table 16, symbol B); format: in vivo, Japanese bulrush (Schoenoplectus juncoides); conditions: 320 g/ha applied herbicide
Summary of the method: (§1)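 Submerged Wagner pots (alluvial soil, 4 cm water) sown with weed seeds and planted with 2.5-leaf rice seedlings; emulsifiable concentrate diluted in water applied to water surface on sowing day. Held in greenhouse at 25-30 °C; injury scored 0-5 by herbicidal rate after three weeks.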

Compound	Herbicidal effect on B: Japanese bulrush (grade 0-5)
C#CCOc1ccc(-c2sc3ccc(F)cc3c2-c2c(O)c(C)nn(C)c2=O)cc1 [2-053]	3 (Herbicidal rate of 40% or more and less than 70%)
CSc1ccc(-c2sc3ccc(F)cc3c2-c2c(O)c(C)nn(C)c2=O)cc1 [2-076]	0 (Herbicidal rate of 5% or less (almost no effect))
CCCC(=O)Oc1c(C)nn(C)c(=O)c1-c1c(-c2ccc(SC)cc2)sc2ccc(F)cc12 [2-077]	4 (Herbicidal rate of 70% or more and less than 90%)

system: oval-leafed pondweed; test: Test Example 1: herbicidal activity, application before weed generation under submerged conditions (Table 16, symbol C); format: in vivo, oval-leafed pondweed (Monochoria vaginalis); conditions: 320 g/ha applied herbicide
Summary of the method: as §1

Compound	Herbicidal effect on C: oval-leafed pondweed (grade 0-5)
C#CCOc1ccc(-c2sc3ccc(F)cc3c2-c2c(O)c(C)nn(C)c2=O)cc1 [2-053]	4 (Herbicidal rate of 70% or more and less than 90%)
CSc1ccc(-c2sc3ccc(F)cc3c2-c2c(O)c(C)nn(C)c2=O)cc1 [2-076]	0 (Herbicidal rate of 5% or less (almost no effect))
CCCC(=O)Oc1c(C)nn(C)c(=O)c1-c1c(-c2ccc(SC)cc2)sc2ccc(F)cc12 [2-077]	5 (Herbicidal rate of 90% or more (almost completely withered))

system: Japanese bulrush; test: Test Example 2: herbicidal activity, application during weed generation under submerged conditions (Table 17, symbol B); format: in vivo, Japanese bulrush (Schoenoplectus juncoides); conditions: AAH 320 g/ha; application during weed generation, submerged conditions
Summary of the method: (§2)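 Effect on each weed is rated three weeks post-treatment, using the same scoring criteria as the preceding test. Plants grow from mixed-sown seed in flooded alluvial soil (4 cm water) at 25° C. to 30° C., and are treated at one to two leaves with diluted emulsion dropped onto the water.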

Compound	herbicidal effect rating, B: Japanese bulrush
C#CCOc1ccc(-c2sc3ccc(F)cc3c2-c2c(O)c(C)nn(C)c2=O)cc1 [2-053]	3 (Herbicidal rate of 40% or more and less than 70%)
CSc1ccc(-c2sc3ccc(F)cc3c2-c2c(O)c(C)nn(C)c2=O)cc1 [2-076]	3 (Herbicidal rate of 40% or more and less than 70%)
CCCC(=O)Oc1c(C)nn(C)c(=O)c1-c1c(-c2ccc(SC)cc2)sc2ccc(F)cc12 [2-077]	3 (Herbicidal rate of 40% or more and less than 70%)

system: oval-leafed pondweed; test: Test Example 2: herbicidal activity, application during weed generation under submerged conditions (Table 17, symbol C); format: in vivo, oval-leafed pondweed (Monochoria vaginalis); conditions: AAH 320 g/ha; application during weed generation, submerged conditions
Summary of the method: as §2

Compound	herbicidal effect rating, C: oval-leafed pondweed
C#CCOc1ccc(-c2sc3ccc(F)cc3c2-c2c(O)c(C)nn(C)c2=O)cc1 [2-053]	3 (Herbicidal rate of 40% or more and less than 70%)
CSc1ccc(-c2sc3ccc(F)cc3c2-c2c(O)c(C)nn(C)c2=O)cc1 [2-076]	0 (Herbicidal rate of 5% or less (almost no effect))
CCCC(=O)Oc1c(C)nn(C)c(=O)c1-c1c(-c2ccc(SC)cc2)sc2ccc(F)cc12 [2-077]	3 (Herbicidal rate of 40% or more and less than 70%)

system: green foxtail; test: Test Example 4: herbicidal effect by soil treatment (Table 19, symbol G); format: in vivo, green foxtail (Setaria viridis); conditions: 320 g/ha
Summary of the method: (§3)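 Seeds were sown in sterilized diluvial soil and covered with about 1.5 cm of soil. An emulsion formulation diluted with water to a predetermined herbicide amount was sprayed evenly onto the soil surface. Plants grew in a greenhouse at 25° C. to 30° C., and the effect was scored three weeks after application using criteria from an earlier test.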

Compound	herbicidal effect rating, G: green foxtail
C#CCOc1ccc(-c2sc3ccc(F)cc3c2-c2c(O)c(C)nn(C)c2=O)cc1 [2-053]	4 (Herbicidal rate of 70% or more and less than 90%)
CSc1ccc(-c2sc3ccc(F)cc3c2-c2c(O)c(C)nn(C)c2=O)cc1 [2-076]	4 (Herbicidal rate of 70% or more and less than 90%)
CCCC(=O)Oc1c(C)nn(C)c(=O)c1-c1c(-c2ccc(SC)cc2)sc2ccc(F)cc12 [2-077]	4 (Herbicidal rate of 70% or more and less than 90%)

system: barnyard grass; test: Test Example 4: herbicidal effect by soil treatment (Table 19, symbol H); format: in vivo, barnyard grass (Echinochloa crus-galli); conditions: 320 g/ha
Summary of the method: as §3

Compound	herbicidal effect rating, H: barnyard grass
C#CCOc1ccc(-c2sc3ccc(F)cc3c2-c2c(O)c(C)nn(C)c2=O)cc1 [2-053]	2 (Herbicidal rate of 20% or more and less than 40%)
CSc1ccc(-c2sc3ccc(F)cc3c2-c2c(O)c(C)nn(C)c2=O)cc1 [2-076]	3 (Herbicidal rate of 40% or more and less than 70%)
CCCC(=O)Oc1c(C)nn(C)c(=O)c1-c1c(-c2ccc(SC)cc2)sc2ccc(F)cc12 [2-077]	3 (Herbicidal rate of 40% or more and less than 70%)

system: wild oat; test: Test Example 4: herbicidal effect by soil treatment (Table 19, symbol I); format: in vivo, wild oat (Avena fatua); conditions: 320 g/ha
Summary of the method: as §3

Compound	herbicidal effect rating, I: wild oat
C#CCOc1ccc(-c2sc3ccc(F)cc3c2-c2c(O)c(C)nn(C)c2=O)cc1 [2-053]	0 (Herbicidal rate of 5% or less (almost no effect))
CSc1ccc(-c2sc3ccc(F)cc3c2-c2c(O)c(C)nn(C)c2=O)cc1 [2-076]	0 (Herbicidal rate of 5% or less (almost no effect))
CCCC(=O)Oc1c(C)nn(C)c(=O)c1-c1c(-c2ccc(SC)cc2)sc2ccc(F)cc12 [2-077]	2 (Herbicidal rate of 20% or more and less than 40%)

system: redroot pigweed; test: Test Example 4: herbicidal effect by soil treatment (Table 19, symbol N); format: in vivo, redroot pigweed (Amaranthus retroflexus); conditions: 320 g/ha
Summary of the method: as §3

Compound	herbicidal effect rating, N: redroot pigweed
C#CCOc1ccc(-c2sc3ccc(F)cc3c2-c2c(O)c(C)nn(C)c2=O)cc1 [2-053]	0 (Herbicidal rate of 5% or less (almost no effect))
CSc1ccc(-c2sc3ccc(F)cc3c2-c2c(O)c(C)nn(C)c2=O)cc1 [2-076]	5 (Herbicidal rate of 90% or more (almost completely withered))
CCCC(=O)Oc1c(C)nn(C)c(=O)c1-c1c(-c2ccc(SC)cc2)sc2ccc(F)cc12 [2-077]	5 (Herbicidal rate of 90% or more (almost completely withered))

system: chickweed; test: Test Example 4: herbicidal effect by soil treatment (Table 19, symbol P); format: in vivo, common chickweed (Stellaria media); conditions: 320 g/ha
Summary of the method: as §3

Compound	herbicidal effect rating, P: chickweed
C#CCOc1ccc(-c2sc3ccc(F)cc3c2-c2c(O)c(C)nn(C)c2=O)cc1 [2-053]	1 (Herbicidal rate of 5% or more and less than 20%)
CSc1ccc(-c2sc3ccc(F)cc3c2-c2c(O)c(C)nn(C)c2=O)cc1 [2-076]	4 (Herbicidal rate of 70% or more and less than 90%)
CCCC(=O)Oc1c(C)nn(C)c(=O)c1-c1c(-c2ccc(SC)cc2)sc2ccc(F)cc12 [2-077]	5 (Herbicidal rate of 90% or more (almost completely withered))

system: southern crabgrass; test: Test Example 5: herbicidal effect by foliage application, plastic box (Table 20, symbol F); format: in vivo, southern crabgrass (Digitaria ciliaris); conditions: foliage application, 320 g/ha, evaluated three weeks after application
Summary of the method: (§4)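 Plants sown in sterilized diluvial soil and grown 14 days in a greenhouse at 25° C to 30° C, then sprayed on the foliage with the compound's emulsion diluted in water to a predetermined herbicide amount. Injury to weeds and crops scored three weeks after application on a visual rating scale.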

Compound	herbicidal effect on F: southern crabgrass
C#CCOc1ccc(-c2sc3ccc(F)cc3c2-c2c(O)c(C)nn(C)c2=O)cc1 [2-053]	4 (Herbicidal rate of 70% or more and less than 90%)
CSc1ccc(-c2sc3ccc(F)cc3c2-c2c(O)c(C)nn(C)c2=O)cc1 [2-076]	5 (Herbicidal rate of 90% or more (almost completely withered))
CCCC(=O)Oc1c(C)nn(C)c(=O)c1-c1c(-c2ccc(SC)cc2)sc2ccc(F)cc12 [2-077]	5 (Herbicidal rate of 90% or more (almost completely withered))

system: green foxtail; test: Test Example 5: herbicidal effect by foliage application, plastic box (Table 20, symbol G); format: in vivo, green foxtail (Setaria viridis); conditions: foliage application, 320 g/ha, evaluated three weeks after application
Summary of the method: as §4

Compound	herbicidal effect on G: green foxtail
C#CCOc1ccc(-c2sc3ccc(F)cc3c2-c2c(O)c(C)nn(C)c2=O)cc1 [2-053]	5 (Herbicidal rate of 90% or more (almost completely withered))
CSc1ccc(-c2sc3ccc(F)cc3c2-c2c(O)c(C)nn(C)c2=O)cc1 [2-076]	5 (Herbicidal rate of 90% or more (almost completely withered))
CCCC(=O)Oc1c(C)nn(C)c(=O)c1-c1c(-c2ccc(SC)cc2)sc2ccc(F)cc12 [2-077]	5 (Herbicidal rate of 90% or more (almost completely withered))

system: barnyard grass; test: Test Example 5: herbicidal effect by foliage application, plastic box (Table 20, symbol H); format: in vivo, barnyard grass (Echinochloa crus-galli); conditions: foliage application, 320 g/ha, evaluated three weeks after application
Summary of the method: as §4

Compound	herbicidal effect on H: barnyard grass
C#CCOc1ccc(-c2sc3ccc(F)cc3c2-c2c(O)c(C)nn(C)c2=O)cc1 [2-053]	5 (Herbicidal rate of 90% or more (almost completely withered))
CSc1ccc(-c2sc3ccc(F)cc3c2-c2c(O)c(C)nn(C)c2=O)cc1 [2-076]	5 (Herbicidal rate of 90% or more (almost completely withered))
CCCC(=O)Oc1c(C)nn(C)c(=O)c1-c1c(-c2ccc(SC)cc2)sc2ccc(F)cc12 [2-077]	5 (Herbicidal rate of 90% or more (almost completely withered))

system: wild oat; test: Test Example 5: herbicidal effect by foliage application, plastic box (Table 20, symbol I); format: in vivo, wild oat (Avena fatua); conditions: foliage application, 320 g/ha, evaluated three weeks after application
Summary of the method: as §4

Compound	herbicidal effect on I: wild oat
C#CCOc1ccc(-c2sc3ccc(F)cc3c2-c2c(O)c(C)nn(C)c2=O)cc1 [2-053]	2 (Herbicidal rate of 20% or more and less than 40%)
CSc1ccc(-c2sc3ccc(F)cc3c2-c2c(O)c(C)nn(C)c2=O)cc1 [2-076]	5 (Herbicidal rate of 90% or more (almost completely withered))
CCCC(=O)Oc1c(C)nn(C)c(=O)c1-c1c(-c2ccc(SC)cc2)sc2ccc(F)cc12 [2-077]	5 (Herbicidal rate of 90% or more (almost completely withered))

system: windgrass; test: Test Example 5: herbicidal effect by foliage application, plastic box (Table 20, symbol L); format: in vivo, windgrass (Apera spica-venti); conditions: foliage application, 320 g/ha, evaluated three weeks after application
Summary of the method: as §4

Compound	herbicidal effect on L: windgrass
C#CCOc1ccc(-c2sc3ccc(F)cc3c2-c2c(O)c(C)nn(C)c2=O)cc1 [2-053]	4 (Herbicidal rate of 70% or more and less than 90%)
CSc1ccc(-c2sc3ccc(F)cc3c2-c2c(O)c(C)nn(C)c2=O)cc1 [2-076]	5 (Herbicidal rate of 90% or more (almost completely withered))
CCCC(=O)Oc1c(C)nn(C)c(=O)c1-c1c(-c2ccc(SC)cc2)sc2ccc(F)cc12 [2-077]	5 (Herbicidal rate of 90% or more (almost completely withered))

system: chickweed; test: Test Example 5: herbicidal effect by foliage application, plastic box (Table 20, symbol P); format: in vivo, common chickweed (Stellaria media); conditions: foliage application, 320 g/ha, evaluated three weeks after application
Summary of the method: as §4

Compound	herbicidal effect on P: chickweed
C#CCOc1ccc(-c2sc3ccc(F)cc3c2-c2c(O)c(C)nn(C)c2=O)cc1 [2-053]	5 (Herbicidal rate of 90% or more (almost completely withered))
CSc1ccc(-c2sc3ccc(F)cc3c2-c2c(O)c(C)nn(C)c2=O)cc1 [2-076]	5 (Herbicidal rate of 90% or more (almost completely withered))
CCCC(=O)Oc1c(C)nn(C)c(=O)c1-c1c(-c2ccc(SC)cc2)sc2ccc(F)cc12 [2-077]	5 (Herbicidal rate of 90% or more (almost completely withered))

system: persian speedwell; test: Test Example 5: herbicidal effect by foliage application, plastic box (Table 20, symbol R); format: in vivo, Persian speedwell (Veronica persica); conditions: foliage application, 320 g/ha, evaluated three weeks after application
Summary of the method: as §4

Compound	herbicidal effect on R: persian speedwell
C#CCOc1ccc(-c2sc3ccc(F)cc3c2-c2c(O)c(C)nn(C)c2=O)cc1 [2-053]	5 (Herbicidal rate of 90% or more (almost completely withered))
CSc1ccc(-c2sc3ccc(F)cc3c2-c2c(O)c(C)nn(C)c2=O)cc1 [2-076]	5 (Herbicidal rate of 90% or more (almost completely withered))
CCCC(=O)Oc1c(C)nn(C)c(=O)c1-c1c(-c2ccc(SC)cc2)sc2ccc(F)cc12 [2-077]	5 (Herbicidal rate of 90% or more (almost completely withered))
